Converted amounts (≈) assume the structure as drawn. Like-named read-outs stand apart in the source and are kept apart here.

Experiment [1] has as its system murine melanoma cells B16-F1. The experiment in a line: Melanin production by murine melanoma cells B16-F1. As to conditions: Mus musculus, B16-F1, 1 nM α-MSH, 48 hours. The experiment is classed as cell-based. As for the experimental part: Selected compounds were then tested for the ability to suppress melanin production by the murine melanoma cells B16-F1 as detailed below.
Murine melanoma cells B16-F1 were purchased from the ATCC (Cat #CRL-6323). Cell Titer96 AqueousOne Solution was purchased from Promega (Cat #G3582). 0.2 μm pore size, low protein binding filters were purchased from PALL Life Sciences. (Cat #PN4454).
Alpha-MSH was purchased from the Sigma Aldrich (Cat #M4135-1MG). All tissue culture reagents were purchased from VWR (phenol-red-free DMEM, cat #12001-630, L-glutamine, cat #12001-698) and Fisher Scientific (Trypsin-EDTA, cat #25-200-056).
The B16-F1 cells were maintained in cell growth media (DMEM/High Glucose supplemented with glutamine, 10% fetal bovine serum, 50 units/ml penicillin, and 50 units/mL of streptomycin) at 37° C. in a humidified atmosphere of 95% air and 5% CO2.
All test compounds were initially dissolved in 100% DMSO at a concentration of 400 mM. Then, 6 μL of 400 mM test compounds were added to 1.2 mL of the cell growth media giving a final concentration of 2 mM for the test compound and concentration of 0.5% for DMSO. The compounds were centrifuged for 1 h at 20,000×g. Supernatants (1 mL) were collected and filtered through sterile 0.2 μm filters. The compounds were serially diluted in two-fold increments in the sterile cell growth media supplemented with 0.5% DMSO, thus keeping the concentration of DMSO constant for all samples. These serially diluted compounds were subsequently used as two-fold concentrated stock solutions in the melanin production and cell viability assays. Equal volumes of 2× compounds were mixed with media containing 2 nM α-MSH to give a final concentration of 1 nM α-MSH, 0.5% DMSO, and 1× concentration of test compounds.
B16-F1 cells were seeded into the wells of clear-bottom 24-well plates at 50,000 cells per well, in 0.5 mL of cell growth media. On the following day, 0.5 mL of freshly prepared test compounds containing α-MSH were added to the wells. The cells were maintained at 37° C. in a humidified atmosphere of 95% air and 5% CO2 for 48 hours. At the end of the incubation period, melanin-containing conditioned media was removed from the cells and transferred to another plate. To measure melanin content the light absorbance of conditioned media was taken at 492 nm using a TECAN Genios plate reader.
More than 90% percent of the melanin produced by cultured melanoma cells is found in extra-cellular media. Therefore, at the end of the experiment melanin-containing media was collected and relative amounts of melanin were determined by absorption at 492 nm. Viability of cells was determined by a commonly used colorimetric procedure that is based on conversion of the tetrazolium compounds to colored formazan products (using Promega's CellTiter96 AqueousOne assay). Dehydrogenase enzymes in metabolically active cells accomplish this conversion, and the amount of formazan product is directly proportional to the number of living cells in culture. Mean (n=2) absorption of wells containing no cells was subtracted as blanks. The results were computed as percent of wells that contained the cells but no test compounds.

For experiment [2], the target named is T1, COX-2 (Homo sapiens, UniProt P35354).
T1 construct: purchased Cayman Chemical 701050
T1 sequence (P35354 18-604): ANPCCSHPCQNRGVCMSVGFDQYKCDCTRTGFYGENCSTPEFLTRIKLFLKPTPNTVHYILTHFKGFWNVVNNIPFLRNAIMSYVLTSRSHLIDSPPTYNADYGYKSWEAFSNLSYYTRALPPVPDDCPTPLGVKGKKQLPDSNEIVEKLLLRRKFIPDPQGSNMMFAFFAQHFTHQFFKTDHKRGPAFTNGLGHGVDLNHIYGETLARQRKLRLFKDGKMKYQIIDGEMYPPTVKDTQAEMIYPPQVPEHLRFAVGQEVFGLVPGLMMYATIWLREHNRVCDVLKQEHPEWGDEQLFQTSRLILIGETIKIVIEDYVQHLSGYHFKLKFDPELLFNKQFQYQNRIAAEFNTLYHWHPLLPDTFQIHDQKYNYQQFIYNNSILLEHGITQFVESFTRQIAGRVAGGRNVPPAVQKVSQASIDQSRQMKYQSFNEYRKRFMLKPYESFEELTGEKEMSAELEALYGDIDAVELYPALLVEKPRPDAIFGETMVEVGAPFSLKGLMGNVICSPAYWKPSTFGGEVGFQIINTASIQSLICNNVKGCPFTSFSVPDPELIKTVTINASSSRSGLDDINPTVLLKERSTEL
The experiment in a line: COX-2 enzymatic inhibition assay. The experiment is classed as biochemical. As to conditions: for IC50: read-out: Anti-inflammatory (IC50) COX-2. How it is done: In order to screen for compounds that inhibited COX-1 and Cox-2 activity, enzymatic inhibition assay kits were purchased from Cayman Chemical (cat #701050). Briefly, the compound being examined was treated against a fixed amount of COX-1 and COX-2 enzymes. A cleavable, peroxide chromophore was included in the assay to visualize the peroxidase activity of each enzyme in presence of arachidonic acid as […]. Typically, assays were performed in 96-well format. Each inhibitor, taken from a 1 M stock solution in 100% DMSO, was tested in duplicate at room temperature using the following range of concentrations: 1.9, 3.9, 7.8, 15.6, 31.2, 62.5, 125, 250, 500, and 1000 μM. To each well, 150 μL of Assay Buffer was added along with 10 μL of Hemin, 10 μL of inhibitor diluted in DMSO and 10 μL of either COX-1 or COX-2 enzyme. The compounds were incubated for 5 minutes at room temperature, followed by the addition of 20 μL of Colormietric Substrate solution and 20 μL of arachidonic acid solution to initiate the reaction. The plate was mixed and incubated for 2 minutes before reading the absorbance at 590 nm. The inhibitor concentration vs. % of inhibition was plotted and the IC50 determined.

Experiment [3] has as its system Propionibacterium acnes (ATCC11827). The experiment in a line: P-acne MIC/MBC test. Type of experiment: cell-based. As to conditions: for MIC: lowest level that inhibits growth, turbidity, 1 day. As for the experimental part:
The anti-microbial activity of the tested compounds were evaluated using published methods (Modugno e. al. (1994) Antimicrobial agents and Chemotherapy 38: 2362-2368; […] et. al. (1973) Antimicrobial agents and Chemotherapy 3: 40-48. Propionibacterium acnes (ATCC11827) was cultured for 20 hours at 37° C. in Reinforced Clostridal medium. The test article and positive control were dissolved in 1% DMSO with an incubation volume of 1 mL. The time of assessment was 1 day. Measurement of turbidity was used as the method of quantification. The compounds were tested in duplicate at concentrations of 250 ug/mL, 125 ug/mL, 62 ug/mL, 31 ug/mL, 16 ug/mL, 8 ug/mL, 4 ug/mL, 2 ug/mL relative to positive control ampicillin at 0.1 ug/mL.

[4] abbreviates: Tables 1-3, read-out: MELANIN PRODUCTION
[5] abbreviates: Cutibacterium acnes, ATCC11827, 24 h, read-out: MIC.
The mark [6] stands for this setting: FIGS. 2-8, read-out: IC50, inhibition in the production of melanin.
The mark [7] stands for this setting: Cutibacterium acnes, ATCC11827, lowest concentration required to kill the bacterium, read-out: MBC.

As for `CC(C)=CCCC(C)/C=C/c1ccc(O)cc1` (stereo not drawn) [Compound 5, (E)-4-(3,7-dimethylocta-1,6-dienyl)phenol], the IC50 in experiment [1] (setting [4]) and in experiment [2] was 72 µM each time. Moreover, the MIC in experiment [3] (setting [5]) was under 3.9 µg/mL.

`CC(C)=CCCC(C)/C=C/c1cc(O)cc(O)c1` (stereo not drawn) [Compound 7, (E)-5-(3,7-dimethylocta-1,6-dienyl) benzene-1,3-diol]: the figures for the IC50 in experiment [1] (setting [6]), in experiment [1] (setting [4]) and in experiment [2] were 97 µM, 97 µM and 135 µM, respectively. For the same compound, the MIC in experiment [3] (setting [5]) amounted to 7.8 µg/mL (≈ 31.7 µM). Besides, the MBC in experiment [3] (setting [7]) lay in the range of 7.8 to 31.3 µg/mL (≈ 31.7 to 127 µM).

On to `CC(C)=CCCC(C)/C=C/c1ccc(O)cc1O` (stereo not drawn) [Compound 6, (E)-4-(3,7-dimethylocta-1,6-dienyl) benzene-1,3-diol], for which the IC50 was 9 µM in experiment [1] (setting [6]), 9 µM in experiment [1] (setting [4]) and 164 µM in experiment [2]. The MIC in experiment [3] (setting [5]) stood at 3.9 µg/mL (≈ 15.8 µM). Further, the MBC in experiment [3] (setting [7]) lay within 3.9 to 31.3 µg/mL (≈ 15.8 to 127 µM).

In the case of `CC(C)=CCC/C(C)=C/c1cc(O)cc(O)c1` [Compound 4, (E/Z)-5-(2,6-dimethylhepta-1,5-dienyl)benzene-1,3-diol], the IC50 in experiment [1] (setting [6]) is 72 µM; in experiment [1] (setting [4]), 72 µM; in experiment [2], 245 µM. For the same compound, the MIC in experiment [3] (setting [5]) is under 3.9 µg/mL. The MBC in experiment [3] (setting [7]) was under 3.9 µg/mL.

Turning to `CC(C)=CCCC(C)=Cc1ccc(O)cc1` (mixture of isomers) [Compound 1, (E/Z)-4-(2,6-dimethylhepta-1,5-dienyl)phenol], the IC50 in experiment [1] (setting [6]) and in experiment [1] (setting [4]) was 158 µM each time. Also, the “Anti-inflammatory (IC50) COX-2” value in experiment [2] is given as “Not active”. The MIC is under 3.9 µg/mL in experiment [3] (setting [5]) and under 3.9 ppm in experiment [3]. Besides, the MBC in experiment [3] (setting [7]) was under 3.9 µg/mL; in experiment [3] (lowest concentration required to kill the bacterium), under 3.9 ppm.

Regarding `CC(C)=CCCC(C)C/C=C\c1cc(O)cc(O)c1` (stereo not drawn) [Compound 15, (Z)-5-(4,8-dimethylnona-1,7-dienyl) benzene-1,3-diol], the results for the IC50 in experiment [1] (setting [6]) and in experiment [1] (setting [4]) were 74 µM and 158 µM, respectively. Further, the “Anti-inflammatory (IC50) COX-2” value in experiment [2] is “No Inhibition”. For the same compound, the MIC in experiment [3] (setting [5]) is under 3.9 µg/mL. In experiment [3] (setting [7]), the MBC was under 3.9 µg/mL.

The values are drawn from patent publication US12358859B2, “Series of compounds for treatment of skin diseases and other conditions” (Unigen, Inc., priority 2018, dated 2025).
